In the assay the test system is phenyl-para-quinone induced writhes. The assay can be described thus: phenyl-para-quinone writhing assay in mice (analgetic activity). In kind it is in vivo. The conditions noted are these: subcutaneous (sc); for Analgetic Activity, percent inhibition of writhing: screening dose of 20 mg/kg. The protocol:
Exptl. Biol. Med., 95, 729 ([…])]. Presented in the Table is the analgetic activity of representative compounds of the invention and a standard, expressed as the estimated subcutaneous dose at which the mice experience a 50% reduction in phenyl-para-quinone induced writhes, i.e., the ED50 -value, or the percent inhibition of writhing caused by a screening dose of 20 mg/kg of body weight administered subcutaneously (sc).
In general terms: In writhing tests, fewer writhes than in controls are read as antinociception.

Structures are written as SMILES.

For `O=c1n(CCc2ccccc2)nc2n1-c1ccccc1N1CCc3cccc-2c31` [1,2-Dihydro-7-(2-phenylethyl)benzo[b]pyrrolo[3,2,1-jk][1,2,4]triazolo[4,3-d][1,4]benzodiazepin-8(7H)-one], the “Analgetic Activity, percent inhibition of writhing” value came to 62%. Consider `O=c1n(CCCc2noc3cc(F)ccc23)nc2n1-c1cc(Br)ccc1N1CCc3cccc-2c31` [11-Bromo-1,2-dihydro-7-[3-(6-fluoro-1,2-benzisoxazol-3-yl)-1-propyl]benzo[b]pyrrolo[3,2,1-jk][1,2,4]triazolo[4,3-d][1,4]benzodiazepin-8(7H)-one], for which the “Analgetic Activity, percent inhibition of writhing” value is reported as 54%.

Take `CN(C)Cc1nnc2n1-c1cc(Br)ccc1N1CCc3cccc-2c31` [11-Bromo-1,2-dihydro-8-(dimethylamino)methylbenzo[b]pyrrolo[3,2,1-jk][1,2,4]triazolo[4,3-d][1,4]benzodiazepine]: the “Analgetic Activity, ED50 (estimated subcutaneous dose at which the mice experience a 50% reduction in phenyl-para-quinone induced writhes)” value is recorded as 3.55 mg/kg. For the molecule `Brc1ccc2c(c1)-n1nnnc1-c1cccc3c1N2CC3` [11-Bromo-1,2-dihydrobenzo[b]pyrrolo[3,2,1-jk]tetrazolo[1,5-d][1,4]benzodiazepine], the “Analgetic Activity, percent inhibition of writhing” value worked out at 56%. Take `Cc1ccc2c(c1)n1c(CN(C)C)nnc1c1cccc3ccn2c31` [11-Methyl-8-(dimethylamino)methylbenzo[b]pyrrolo[3,2,1-jk][1,2,4]triazolo[4,3-d][1,4]benzodiazepine]: the “Analgetic Activity, percent inhibition of writhing” value is 57%. With `CCC(=O)O[C@](Cc1ccccc1)(c1ccccc1)[C@H](C)CN(C)C` [propoxyphene, reference compound], the “Analgetic Activity, ED50 (estimated subcutaneous dose at which the mice experience a 50% reduction in phenyl-para-quinone induced writhes)” value was 3.9 mg/kg.

Source of the values: patent US4983601A, “Benzo(b)pyrrolobenzodiazepines” (Hoechst-Roussel Pharmaceutical Inc., priority 1989, dated 1991).
